Experimental data as given in paper PMC11093748, “De novo identification of CD4^+ T cell epitopes” (Nature Methods, 2024).

Key:
Type in all cases: cell-based, mouse
[1] = test system: 4-8Ins TCR; assay: I-Ag7 SABR-II library screen, enrichment score
Description: (§1) We then asked whether SABR-IIs could be used to present a library of epitopes for CD4^+ T cell antigen discovery. To that end, we constructed a SABR-II library to present epitopes derived from pancreatic islets in I-Ag7 by curating a list of 4,075 published epitopes from the Immune Epitope Database (iedb.org)[50] and a study by Wan et al.[51] (Supplementary Table 1). Of note, this defined library consisted of unmodified epitopes from endogenous proteins, synthetic mimotopes, deamidated epitopes and hybrid insulin peptides (HIPs) that arise from post-translational fusion and are not genetically encoded in vivo[52],[53]. The epitope library was inserted into the I-Ag7 SABR-II backbone through pooled oligonucleotide synthesis, amplification and ligation-free cloning (Extended Data Fig. 3a). The I-Ag7 SABR-II-library was then expressed in NFAT–GFP Jurkat cells. We confirmed that after sequencing, the library accounted for a mean of 708 reads per epitope (Extended Data Fig. 3b). As a proof of concept, we performed co-incubation assays with Jurkat cells expressing the BDC2.5 TCR and sorted the top 1–2% of GFP^+CD69^+ cells at a rate of ~20 min per replicate with three replicates per TCR. We extracted the genomic DNA from sorted cells, amplified the SABR portion of the integrated proviruses and subjected the amplicons to Illumina sequencing (Extended Data Fig. 3c,d). The 1–2% sort gate represents >50-fold enrichment of cognate epitopes with minimal loss of signal (Extended Data Fig. 3e–h). Sequence reads were aligned to the I-Ag7 SABR-II backbone and the corresponding epitopes were scored based on their read counts. For each TCR under investigation, an enrichment score (ES) was determined for all the epitopes in a library. In each experiment, three replicates of a sort with TCR-expressing Jurkat cells were performed and reads were counted post-sequencing. In addition, three replicates of the unsorted library were also sequenced. A linear regression model was built using the unsorted library counts and used to determine the expected abundance of each epitope in the library. The ES was calculated based on the difference between the measured and the expected abundance of each epitope on a per-TCR basis (Fig. 1e). Based on ES values, two quantitative thresholds were used to determine putative cognate epitopes of a given TCR. A high-confidence zone containing clear outliers with a high ES and a low-confidence zone containing weak outliers with a moderately high ES were determined (Fig. 1e). This two-tiered strategy was used to call putative hits from screens. All the top-scoring epitopes for the BDC2.5 TCR were known BDC2.5 ligands containing the WXRM(D/E) motif (Fig. 1f,g, enriched ligands in red), a well-characterized trait of the BDC2.5 TCR[43],[54]–[56]. Across several independent experiments there was limited variation in ES values for the same TCRs and several epitopes fell into high- or low-confidence zones consistently (Extended Data Fig. 4a). Using a different TCR that was isolated from NOD mice, 4-8Ins[57], which recognized the InsB9:23 epitope ([…]), we observed a similar pattern of ES for cognate epitopes (Extended Data Fig. 4b).
(§2) For SABR library screens, 3 × 10^6 NFAT–GFP Jurkat cells expressing the SABR library were labeled with CellTrace Violet (BioLegend) according to the manufacturer’s protocol before incubation with 3 × 10^6 Jurkat cells expressing the TCR of interest. These mixtures were incubated in a six-well plate for 16–20 h. Cells were stained with anti-CD69-APC-Cy7 where indicated (BioLegend) and the top 1–2% of GFP^+CD69^+ cells were sorted for genomic DNA extraction, indexing and sequencing (see below). Multiplexed assays were scaled on a per-TCR basis (for example 3 × 10^6 for each of three TCRs against 9 × 10^6 library cells). […]

[2] = test system: BDC2.5 TCR; assay: I-Ag7 SABR-II library screen, enrichment score; details: for Enrichment score: I-Ag7 library; for Enrichment score EXPT1 / Enrichment score EXPT2 / Enrichment score EXPT3 / Enrichment score EXPT5 / Enrichment score EXPT7 / Enrichment score EXPT8: sheet Fig 1F, whole library; for Enrichment score EXPT1: independent biological experiment 1 of 8; for Enrichment score EXPT2: independent biological experiment 2 of 8; for Enrichment score EXPT3: independent biological experiment 3 of 8; for Enrichment score EXPT5: independent biological experiment 5 of 8; for Enrichment score EXPT7: independent biological experiment 7 of 8; for Enrichment score EXPT8: independent biological experiment 8 of 8
Description: as §1, §2

[3] = test system: TCR1; assay: I-Ag7 SABR-II library screen, enrichment score; details: sheet TCR1-PZ44; ES = TCRObserved - TCRPredicted; TCRPredicted = LIBObserved x SLOPE + INTERCEPT; SLOPE 0.917532, INTERCEPT 2.02377e-5
Description: as §1
(§3) We performed systematic screening of the cloned TCRs against the I-Ag7 SABR-II library. Several TCRs along with a positive control (such as BDC2.5 or 4-8Ins) were screened individually against the library for each sort (Extended Data Fig. 6a and Supplementary Table 4). High- and low-confidence ES zones for each screened TCR were defined by the ES values of the control TCR’s cognate epitopes. For all putative cognate epitopes, single SABR-IIs were constructed, expressed in NFAT–GFP Jurkat cells and used for co-incubation with the corresponding TCRs. Co-incubation assays that yielded a GFP signal higher than that obtained in assays with no TCR were determined to be positive and the epitopes deemed true cognate ligands (Extended Data Fig. 6b,c). […]

[4] = test system: TCR21A; assay: I-Ag7 SABR-II library screen, enrichment score; details: TCR_Mean minus PREDICTED_TCR (slope 0.957287, intercept 1.04818e-5 on LIB_Mean), TCR 21A, run PZ56
Description: as §1, §3

[5] = test system: TCR40; assay: I-Ag7 SABR-II library screen, enrichment score; details: I-Ag7 SABR-II library PZ101, CD4 TCR 40; TCR_Mean of 3 replicates minus PREDICTED_TCR (slope 0.959981, intercept 9.82052e-6)
Description: as §1, §3

[6] = test system: TCR6B; assay: I-Ag7 SABR-II library screen, enrichment score; details: sheet TCR6B-PZ37; ES = TCRObserved - TCRPredicted; TCRPredicted = LIBObserved x SLOPE + INTERCEPT; SLOPE 0.908569, INTERCEPT 2.24372e-5
Description: as §1, §3

[7] = test system: pooled TCR1, TCR2, TCR3, TCR5, TCR7, TCR24, TCR37 with one TCR left out; assay: Multiplexed TCR/library dropout screen, individual ES of each leave-one-out pool; details: for INDIVIDUAL ES LOO_TCR1: leave-one-out pool without TCR1; for INDIVIDUAL ES LOO_TCR2: leave-one-out pool without TCR2; for INDIVIDUAL ES LOO_TCR3: leave-one-out pool without TCR3; for INDIVIDUAL ES LOO_TCR5: leave-one-out pool without TCR5; for INDIVIDUAL ES LOO_TCR7: leave-one-out pool without TCR7; for INDIVIDUAL ES LOO_TCR24: leave-one-out pool without TCR24; for INDIVIDUAL ES LOO_TCR37: leave-one-out pool without TCR37
Description: Supplement 41592_2024_2255_MOESM7_ESM.xlsx, sheet "leave-one-out analysis" | column: LOO_TCR1; LOO_TCR2; LOO_TCR3; LOO_TCR5; LOO_TCR7; LOO_TCR24; LOO_TCR37

[8] = EXPT1 of 3 biological experiments
[9] = EXPT1 of 8 biological experiments
[10] = one biological experiment (Ext. Data Fig. 6B)

| Sequence | Enrichment score [1, 8] | Enrichment score ([1]; EXPT2 of 3) | Enrichment score ([1]; EXPT3 of 3) | Enrichment score [2, 9] | Enrichment score ([2]; EXPT2 of 8) | Enrichment score ([2]; EXPT3 of 8) | Enrichment score ([2]; EXPT4 of 8) | Enrichment score ([2]; EXPT6 of 8) | Enrichment score ([2]; EXPT7 of 8) | Enrichment score ([2]; EXPT8 of 8) | Enrichment score [2, 10] | Enrichment score EXPT1 [2] | Enrichment score EXPT2 [2] | Enrichment score EXPT3 [2] | Enrichment score EXPT5 [2] | Enrichment score EXPT7 [2] | Enrichment score EXPT8 [2] | Enrichment score [3] | Enrichment score [4] | Enrichment score [5] | also measured |
| --- | --- | --- | --- | --- | --- | --- | --- | --- | --- | --- | --- | --- | --- | --- | --- | --- | --- | --- | --- | --- | --- |
| AAVEEGIVAGGGVTLL | 6.335e-5 | -6.366e-5 | -1.563e-5 | -2.818e-5 | -9.793e-5 | 0.0001628 | -0.0001173 | 0.0001045 | -9.918e-5 | -0.0001409 | 0.0001628 | -9.793e-5 | -2.818e-5 | 0.0001628 | 9.606e-5 | -9.918e-5 | -0.0001409 | 0.0002622 | 7.745e-5 | 6.713e-5 | Enrichment score [6]: 4.397e-5; INDIVIDUAL ES LOO_TCR1 [7]: -4.978e-5; INDIVIDUAL ES LOO_TCR2 [7]: -3.795e-6; INDIVIDUAL ES LOO_TCR3 [7]: 1.5842e-5; INDIVIDUAL ES LOO_TCR5 [7]: 3.701e-5; INDIVIDUAL ES LOO_TCR7 [7]: 1.545e-5; INDIVIDUAL ES LOO_TCR24 [7]: -1.25e-6; INDIVIDUAL ES LOO_TCR37 [7]: -5.451e-6 |
| AEKVRNLPAGHGLNAQ | -3.1932e-6 | 0.0001517 | -4.244e-5 | 2.296e-5 | 1.2173e-5 | 6.168e-6 | 0.0002539 | -2.745e-5 | 9.062e-5 | 9.25e-5 | 6.168e-6 | 1.2173e-5 | 2.296e-5 | 6.168e-6 | 8.842e-5 | 9.062e-5 | 9.25e-5 | 9.239e-5 | 0.0001683 | -9.416e-5 | Enrichment score [6]: -0.0001883; INDIVIDUAL ES LOO_TCR1 [7]: 5.319e-5; INDIVIDUAL ES LOO_TCR2 [7]: -0.0001199; INDIVIDUAL ES LOO_TCR3 [7]: -3.193e-5; INDIVIDUAL ES LOO_TCR5 [7]: 1.335e-5; INDIVIDUAL ES LOO_TCR7 [7]: -1.1271e-5; INDIVIDUAL ES LOO_TCR24 [7]: -8.015e-5; INDIVIDUAL ES LOO_TCR37 [7]: -1.6913e-5 |
| AGGVAVIKAGAATEV | 2.615e-5 | -2.489e-5 | 4.9e-5 | -4.65e-5 | 5.397e-5 | 2.078e-5 | 2.834e-5 | -5.5015e-5 | -7.0061e-5 | -2.822e-5 | 2.078e-5 | 5.397e-5 | -4.65e-5 | 2.078e-5 | 9.8885e-5 | -7.0061e-5 | -2.822e-5 | 3.28e-9 | 3.881e-5 | 8.867e-6 | Enrichment score [6]: 0.0001547; INDIVIDUAL ES LOO_TCR1 [7]: 2.749e-5; INDIVIDUAL ES LOO_TCR2 [7]: 9.403e-5; INDIVIDUAL ES LOO_TCR3 [7]: -4.985e-5; INDIVIDUAL ES LOO_TCR5 [7]: 2.576e-5; INDIVIDUAL ES LOO_TCR7 [7]: 3.872e-6; INDIVIDUAL ES LOO_TCR24 [7]: -1.653e-5; INDIVIDUAL ES LOO_TCR37 [7]: 5.688e-5 |
| AKAAVEEGIVAGGGV | -1.842e-5 | 0.0001302 | -6.807e-5 | -0.0001132 | -8.351e-5 | -9.939e-5 | 5.807e-5 | 0.0001711 | 8.834e-6 | 1.023e-7 | -9.939e-5 | -8.351e-5 | -0.0001132 | -9.939e-5 | 0.0002581 | 8.834e-6 | 1.023e-7 | -8.988e-5 | -4.928e-5 | -1.429e-5 | Enrichment score [6]: 0.0001193; INDIVIDUAL ES LOO_TCR1 [7]: -3.982e-5; INDIVIDUAL ES LOO_TCR2 [7]: -3.046e-5; INDIVIDUAL ES LOO_TCR3 [7]: -2.304e-5; INDIVIDUAL ES LOO_TCR5 [7]: -3.485e-6; INDIVIDUAL ES LOO_TCR7 [7]: 9.492e-5; INDIVIDUAL ES LOO_TCR24 [7]: 4.6789e-5; INDIVIDUAL ES LOO_TCR37 [7]: 6.867e-6 |
| ALVREGLRNVAAGANP | -1.064e-5 | -1.266e-5 | -8.85e-6 | -1.509e-5 | -2.732e-5 | -2.567e-5 | -1.199e-5 | -1.468e-5 | -1.252e-5 | -2.71e-5 | -2.567e-5 | -2.732e-5 | -1.509e-5 | -2.567e-5 | -3.182e-5 | -1.252e-5 | -2.71e-5 | -2.024e-5 | -1.111e-5 | -9.821e-6 | Enrichment score [6]: -2.303e-5; INDIVIDUAL ES LOO_TCR1 [7]: -1.224e-5; INDIVIDUAL ES LOO_TCR2 [7]: -1.224e-5; INDIVIDUAL ES LOO_TCR3 [7]: -1.224e-5; INDIVIDUAL ES LOO_TCR5 [7]: -1.224e-5; INDIVIDUAL ES LOO_TCR7 [7]: -1.224e-5; INDIVIDUAL ES LOO_TCR24 [7]: -1.224e-5; INDIVIDUAL ES LOO_TCR37 [7]: -1.224e-5 |
